The assay has as its target T1, GLP-1R (Homo sapiens, UniProt P43220).
T1 construct: host or cells: CRE-bla CHO-K1
Kind of assay: EC20 GLP-1(9-36) PAM cAMP Assay: dose response of compound in the presence of fixed concentration of GLP-1(9-36). Type of assay: cell-based. The settings on record: GLP-1R CRE-bla CHO-K1 cells, in presence of fixed concentration of GLP-1(9-36), 30 min at 37° C. The method, then:
EC20 GLP-1(9-36) PAM cAMP Assay: Dose Response of Compound in the Presence of Fixed Concentration of GLP-1 (9-36).
GLP-1R CRE-bla CHO-K1 cells cultured in growth medium (DMEM-High glucose, 10% dialyzed FBS, 0.1 mM NEAA, 25 mM Hepes, 100 U/mL penicillin/100 μg/mL streptomycin, 5 μg/mL Blasticidin, 600 μg/mL Hygromycin) were trypsinized and plated in suspension into 384 well white flat bottom plates at 5000 cells/well in 12 μL assay buffer (Hanks Balanced Salt solution, 10 mM Hepes, 0.1% BSA, 10 pH 7.4). A 5× compound dose response curve (12-point) was generated in assay buffer containing 1.5 mM IBMX, 4% DMSO. GLP-1(9-36) was diluted to 4.2 μM in assay buffer containing 1.5 mM IBMX and 4% DMSO. The 5× compound dose response was added (3 μL), followed by 0.5 μL of GLP-1(9-36) and cells were incubated for 30 min at 37° C. Direct detection of cAMP was carried out using DiscoveRx HitHunter cAMP kit according to manufacturer's instructions and luminescence was read using a SpectraMax M5 plate reader. Luminescence was converted to total cAMP using a cAMP standard curve and data was analyzed by non-linear regression to determine the EC50 and Emax.
T1 sequence (P43220 24-463): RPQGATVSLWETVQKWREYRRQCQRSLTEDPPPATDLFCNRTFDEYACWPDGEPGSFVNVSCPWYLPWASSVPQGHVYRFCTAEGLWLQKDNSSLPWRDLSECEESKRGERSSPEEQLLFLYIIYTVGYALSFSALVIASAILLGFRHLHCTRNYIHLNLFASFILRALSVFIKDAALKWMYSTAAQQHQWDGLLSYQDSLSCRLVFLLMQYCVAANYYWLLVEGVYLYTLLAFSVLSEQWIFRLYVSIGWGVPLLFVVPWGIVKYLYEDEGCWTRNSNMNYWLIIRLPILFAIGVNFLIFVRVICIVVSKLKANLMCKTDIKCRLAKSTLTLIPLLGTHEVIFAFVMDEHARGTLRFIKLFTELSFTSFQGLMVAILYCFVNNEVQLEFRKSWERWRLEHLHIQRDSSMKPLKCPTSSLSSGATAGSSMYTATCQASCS
T1 sequence (P01275 100-127 partner limits assumed): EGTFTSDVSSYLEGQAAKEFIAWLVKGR
`CCCCCC1CCC(C2CC=C(c3cnc(-c4ccc(C[C@H](NC(=O)c5ccc(C(C)(C)C)s5)C(=O)N5CC(C(=O)O)C5)cc4)nc3)CC2)CC1` (mixture of isomers) [Compound 4, 1-((2S)-2-(5-(tert-butyl)thiophene-2-carboxamido)-3-(4-(5-(4′-pentyl-[1,1′-bi(cyclohexan)]-3-en-4-yl)pyrimidin-2-yl)phenyl)propanoyl)azetidine-3-carboxylic acid]: the EC50 (as a rule, the concentration at which the effect is half-maximal) was less than 500 nM.

`CCCC1CCC(C2CC=C(c3cnc(-c4ccc(C[C@H](NC(=O)c5ccc(C(C)(C)C)s5)C(=O)N5CC(C(=O)O)C5)cc4)nc3)CC2)CC1` (mixture of isomers) [Compound 6, 1-((2S)-2-(5-(tert-butyl)thiophene-2-carboxamido)-3-(4-(5-(4′-propyl-[1,1′-bi(cyclohexan)]-3-en-4-yl)pyrimidin-2-yl)phenyl)propanoyl)azetidine-3-carboxylic acid]: the EC50 was less than 500 nM. Consider `CCC[C@H]1CC[C@H](C2CC=C(c3cnc(-c4ccc(C[C@H](NC(=O)c5ccc(C(C)(C)C)cc5)C(=O)N5CC(C(=O)O)C5)cc4)nc3)CC2)CC1` (mixture of isomers) [Compound 14, 1-((S)-2-(4-(tert-butyl)benzamido)-3-(4-(5-((1RS,1′s,4′RS)-4′-propyl-[1,1′-bi(cyclohexan)]-3-en-4-yl)pyrimidin-2-yl)phenyl)propanoyl)azetidine-3-carboxylic acid], for which the EC50 is less than 500 nM.

For `CC(C)(C)c1ccc(C(=O)N[C@@H](Cc2ccc(-c3ncc(C4=CCC([C@H]5CC[C@H](C)CC5)CC4)cn3)cc2)C(=O)N2CC(C(=O)O)C2)s1` (mixture of isomers) [Compound 44, 1-((S)-2-(5-(tert-butyl)thiophene-2-carboxamido)-3-(4-(5-((1RS,1′r,4′RS)-4′-methyl-[1,1′-bi(cyclohexan)]-3-en-4-yl)pyrimidin-2-yl)phenyl)propanoyl)azetidine-3-carboxylic acid], the EC50 was less than 500 nM.

Turning to `CC[C@H]1CC[C@H](C2CC=C(c3cnc(-c4ccc(C[C@H](NC(=O)c5ccc(C(C)(C)C)s5)C(=O)N5CC(C(=O)O)C5)cc4)nc3)CC2)CC1` (mixture of isomers) [Compound 76, 1-((S)-2-(5-(tert-butyl)thiophene-2-carboxamido)-3-(4-(5-((1RS,1′r,4′RS)-4′-ethyl-[1,1′-bi(cyclohexan)]-3-en-4-yl)pyrimidin-2-yl)phenyl)propanoyl)azetidine-3-carboxylic acid], the 50% effective concentration (EC50) is less than 500 nM.

Take `CC[C@H]1CC[C@H](C2CC=C(c3cnc(-c4ccc(C[C@H](NC(=O)c5ccc(C(C)(C)C)s5)C(=O)NS(C)(=O)=O)cc4)nc3)CC2)CC1` (mixture of isomers) [Compound 109, 5-(tert-butyl)-N—((S)-3-(4-(5-((1RS,1′r,4′RS)-4′-ethyl-[1,1′-bi(cyclohexan)]-3-en-4-yl)pyrimidin-2-yl)phenyl)-1-(methylsulfonamido)-1-oxopropan-2-yl)thiophene-2-carboxamide]: the EC50 is less than 500 nM.

Consider `CC(C)(C)c1ccc(C(=O)N[C@@H](Cc2ccc(-c3ncc(C4=CCC([C@H]5CC[C@H](C)CC5)CC4)cn3)cc2)C(=O)O)s1` (mixture of isomers) [Compound 123, (S)-2-(5-(tert-butyl)thiophene-2-carboxamido)-3-(4-(5-((1RS,1′r,4′RS)-4′-methyl-[1,1′-bi(cyclohexan)]-3-en-4-yl)pyrimidin-2-yl)phenyl)propanoic acid], for which the EC50 is less than 500 nM. For `CCCC1CCC(C2CC=C(c3cnc(-c4ccc(C[C@H](NC(=O)c5ccc(C(C)(C)C)s5)C(=O)N[C@H](C)C(=O)O)cc4)nc3)CC2)CC1` (stereo partly drawn) [Compound 1, ((2S)-2-(5-(tert-butyl)thiophene-2-carboxamido)-3-(4-(5-(4′-propyl-[1,1′-bi(cyclohexan)]-3-en-4-yl)pyrimidin-2-yl)phenyl)propanoyl)-D-alanine], the EC50 was less than 500 nM. To `CCCCCC1CCC(C2CC=C(c3cnc(-c4ccc(C[C@H](NC(=O)c5ccc(C(C)(C)C)s5)C(=O)N[C@H](C)C(=O)O)cc4)nc3)CC2)CC1` (stereo partly drawn) [Compound 2] belongs 5000 to 10000 nM; to `CCCCCC1CCC(C2CC=C(c3cnc(-c4ccc(C[C@H](NC(=O)c5ccc(C(C)(C)C)s5)C(=O)N5CC[C@H](C(=O)O)C5)cc4)nc3)CC2)CC1` (stereo partly drawn) [Compound 3], less than 500 nM. The figure for `CCCCCC1CCC(C2CC=C(c3cnc(-c4ccc(C[C@H](NC(=O)c5ccc(C(C)(C)C)s5)C(=O)N5CCC[C@H]5C(=O)O)cc4)nc3)CC2)CC1` (stereo partly drawn) [Compound 5] is 500 to 2500 nM; for `CCCC1CCC(C2CC=C(c3cnc(-c4ccc(C[C@H](NC(=O)c5ccc(C(C)(C)C)s5)C(=O)N5CC[C@H](C(=O)O)C5)cc4)nc3)CC2)CC1` (stereo partly drawn) [Compound 7, (3S)-1-((2S)-2-(5-(tert-butyl)thiophene-2-carboxamido)-3-(4-(5-(4′-propyl-[1,1′-bi(cyclohexan)]-3-en-4-yl)pyrimidin-2-yl)phenyl)propanoyl)pyrrolidine-3-carboxylic acid] it is less than 500 nM. The figure for `CCCC1CCC(C2CC=C(c3cnc(-c4ccc(C[C@H](NC(=O)c5ccc(C(C)(C)C)s5)C(=O)N5CCC[C@H]5C(=O)O)cc4)nc3)CC2)CC1` (stereo partly drawn) [Compound 8] is less than 500 nM; for `CCCC1CCC(C2CC=C(c3cnc(-c4ccc(C[C@H](NC(=O)c5ccc(C(C)(C)C)s5)C(=O)O)cc4)nc3)CC2)CC1` (stereo partly drawn) [Compound 9] it is 500 to 2500 nM; for `C[C@@H](NC(=O)[C@H](Cc1ccc(-c2ncc(C3=CCC(c4ccccc4)CC3)cn2)cc1)NC(=O)c1ccc(C(C)(C)C)s1)C(=O)O` (stereo partly drawn) [Compound 10] it is less than 500 nM. As for `CC(C)(C)c1ccc(C(=O)N[C@@H](Cc2ccc(-c3ncc(C4=CCC(c5ccccc5)CC4)cn3)cc2)C(=O)N2CC(C(=O)O)C2)s1` (stereo partly drawn) [Compound 11], the EC50 was less than 500 nM. `CCCC1CCC(C2CCC(c3cnc(-c4ccc(C[C@H](NC(=O)c5ccc(C(C)C)cc5)C(=O)N5CC(C(=O)O)C5)cc4)nc3)CC2)CC1` (stereo partly drawn) [Compound 12]: the half-maximal effective concentration (EC50) was 2500 to 5000 nM. The figure for `CCCC1CCC(C2CC=C(c3cnc(-c4ccc(C[C@H](NC(=O)c5ccc(C(C)C)cc5)C(=O)N5CC(C(=O)O)C5)cc4)nc3)CC2)CC1` (stereo partly drawn) [Compound 13] is less than 500 nM.

With `CCCC1CCC(C2CC=C(c3cnc(-c4ccc(C[C@H](NC(=O)c5cnc(C(C)(C)C)nc5)C(=O)N5CC(C(=O)O)C5)cc4)nc3)CC2)CC1` (stereo partly drawn) [Compound 15], the EC50 is less than 500 nM.

As to `CCCC1CCC(C2CCC(c3cnc(-c4ccc(C[C@H](NC(=O)c5ccc(C(C)C)s5)C(=O)N5CC(C(=O)O)C5)cc4)nc3)CC2)CC1` (stereo partly drawn) [Compound 16], the EC50 was 500 to 2500 nM. The figure for `CCCC1CCC(C2CC=C(c3cnc(-c4ccc(C[C@H](NC(=O)c5ccc(C(C)C)s5)C(=O)N5CC(C(=O)O)C5)cc4)nc3)CC2)CC1` (stereo partly drawn) [Compound 17] is less than 500 nM.

For the molecule `CCCC1CCC(C2CCC(c3cnc(-c4ccc(C[C@H](NC(=O)c5cnn(C(C)(C)C)c5)C(=O)N5CC(C(=O)O)C5)cc4)nc3)CC2)CC1` (stereo partly drawn) [Compound 18], the EC50 lay within 5000 to 10000 nM. The figure for `CCCC1CCC(C2CC=C(c3cnc(-c4ccc(C[C@H](NC(=O)c5cnn(C(C)(C)C)c5)C(=O)N5CC(C(=O)O)C5)cc4)nc3)CC2)CC1` (stereo partly drawn) [Compound 19] is 500 to 2500 nM; for `CCCC1CCC(C2CCC(c3cnc(-c4ccc(C[C@H](NC(=O)c5ccc(CC)cc5)C(=O)N5CC(C(=O)O)C5)cc4)nc3)CC2)CC1` (stereo partly drawn) [Compound 20] it is 5000 to 10000 nM.
